From US11130756B2, “[1,2,4]Triazolo[4,3-A]pyridinyl substituted indole compounds” (BRISTOL-MYERS SQUIBB COMPANY, priority 2017, dated 2021)
pIC50: −log10 of the molar value.

Columns and labels:
Assay type in all cases: cell-based
human TLR9 = molecular target: T1, human TLR9 (Homo sapiens, UniProt Q9NR96); experiment: TLR9 inhibition reporter assay (HEK-Blue, SEAP); conditions: HEK-Blue cells overexpressing human TLR9, ODN2006 5 nM, 22 hour incubation
T1 construct: host or cells: HEK-Blue cells
T1 sequence (Q9NR96 26-1032): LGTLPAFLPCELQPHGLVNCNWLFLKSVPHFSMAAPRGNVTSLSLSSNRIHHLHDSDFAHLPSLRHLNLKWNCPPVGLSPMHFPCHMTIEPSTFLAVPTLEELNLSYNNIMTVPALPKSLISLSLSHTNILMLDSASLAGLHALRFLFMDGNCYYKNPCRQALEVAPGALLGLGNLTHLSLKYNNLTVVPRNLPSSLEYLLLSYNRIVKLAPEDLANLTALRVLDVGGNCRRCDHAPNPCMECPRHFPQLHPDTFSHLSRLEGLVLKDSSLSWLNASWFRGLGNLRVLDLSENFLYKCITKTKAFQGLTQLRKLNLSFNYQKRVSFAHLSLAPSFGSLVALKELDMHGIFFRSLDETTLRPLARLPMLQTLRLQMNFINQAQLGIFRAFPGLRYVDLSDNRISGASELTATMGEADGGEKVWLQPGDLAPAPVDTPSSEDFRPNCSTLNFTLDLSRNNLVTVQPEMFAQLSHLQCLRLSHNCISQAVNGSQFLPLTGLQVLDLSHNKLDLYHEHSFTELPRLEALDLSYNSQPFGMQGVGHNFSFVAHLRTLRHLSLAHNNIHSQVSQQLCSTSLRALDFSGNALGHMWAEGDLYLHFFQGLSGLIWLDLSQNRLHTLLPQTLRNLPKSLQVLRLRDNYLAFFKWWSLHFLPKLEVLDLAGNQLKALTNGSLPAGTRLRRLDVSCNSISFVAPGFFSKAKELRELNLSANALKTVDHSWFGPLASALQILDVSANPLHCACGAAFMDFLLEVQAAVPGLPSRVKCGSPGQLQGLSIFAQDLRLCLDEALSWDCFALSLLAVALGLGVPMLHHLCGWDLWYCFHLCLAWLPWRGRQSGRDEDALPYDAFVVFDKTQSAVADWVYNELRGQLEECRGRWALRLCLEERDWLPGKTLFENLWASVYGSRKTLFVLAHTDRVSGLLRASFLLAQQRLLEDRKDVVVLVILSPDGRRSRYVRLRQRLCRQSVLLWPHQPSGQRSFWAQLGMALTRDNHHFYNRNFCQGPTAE
Outline: (§1)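 Compound treatment: 30 min, RT, 0.05 nM–50 μM final. Agonist: TLR7 gardiquimod 7.5 μM; TLR8 R848 15.9 μM; TLR9 ODN2006 5 nM. Incubation 22 h, 37 °C, 5% CO2. Readout SEAP, HEK-Blue Detection.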

human TLR8 = molecular target: T2, human TLR8 (Homo sapiens, UniProt Q9NR97); experiment: TLR8 inhibition reporter assay (HEK-Blue, SEAP); conditions: HEK-Blue cells overexpressing human TLR8, R848 15.9 μM, 22 hour incubation
T2 construct: host or cells: HEK-Blue cells
T2 sequence (Q9NR97 27-1041): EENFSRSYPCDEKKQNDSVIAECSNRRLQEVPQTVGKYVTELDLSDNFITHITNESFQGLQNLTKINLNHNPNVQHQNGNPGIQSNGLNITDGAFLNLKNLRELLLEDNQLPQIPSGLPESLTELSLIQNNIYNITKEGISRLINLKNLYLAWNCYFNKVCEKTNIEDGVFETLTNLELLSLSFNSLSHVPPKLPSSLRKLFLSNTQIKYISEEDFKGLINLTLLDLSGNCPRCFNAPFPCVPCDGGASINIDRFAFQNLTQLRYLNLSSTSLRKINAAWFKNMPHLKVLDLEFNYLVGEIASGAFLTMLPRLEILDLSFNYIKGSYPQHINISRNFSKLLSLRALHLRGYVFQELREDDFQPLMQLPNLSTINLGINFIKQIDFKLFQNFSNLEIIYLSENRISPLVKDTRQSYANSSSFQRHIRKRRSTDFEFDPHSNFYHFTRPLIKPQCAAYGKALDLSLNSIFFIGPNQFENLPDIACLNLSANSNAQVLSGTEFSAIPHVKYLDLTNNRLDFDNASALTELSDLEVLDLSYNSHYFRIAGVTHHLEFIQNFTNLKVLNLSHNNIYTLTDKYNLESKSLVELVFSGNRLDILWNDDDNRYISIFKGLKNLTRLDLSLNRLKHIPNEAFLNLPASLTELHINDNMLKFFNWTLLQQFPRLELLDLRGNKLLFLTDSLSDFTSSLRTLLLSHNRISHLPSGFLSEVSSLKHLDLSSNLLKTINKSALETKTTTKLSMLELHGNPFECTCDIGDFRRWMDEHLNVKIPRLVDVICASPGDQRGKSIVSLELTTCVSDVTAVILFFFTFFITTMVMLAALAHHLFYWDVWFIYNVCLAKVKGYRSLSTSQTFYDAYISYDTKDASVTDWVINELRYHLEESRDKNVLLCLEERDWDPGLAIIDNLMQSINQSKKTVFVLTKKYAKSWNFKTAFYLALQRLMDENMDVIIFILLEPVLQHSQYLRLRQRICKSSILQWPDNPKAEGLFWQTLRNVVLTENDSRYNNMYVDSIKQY
Outline: as §1

human TLR7 = molecular target: T3, human TLR7 (Homo sapiens, UniProt Q9NYK1); experiment: TLR7 inhibition reporter assay (HEK-Blue, SEAP); conditions: HEK-Blue cells overexpressing human TLR7, gardiquimod 7.5 μM, 22 hour incubation
T3 construct: host or cells: HEK-Blue cells
T3 sequence (Q9NYK1 27-1049): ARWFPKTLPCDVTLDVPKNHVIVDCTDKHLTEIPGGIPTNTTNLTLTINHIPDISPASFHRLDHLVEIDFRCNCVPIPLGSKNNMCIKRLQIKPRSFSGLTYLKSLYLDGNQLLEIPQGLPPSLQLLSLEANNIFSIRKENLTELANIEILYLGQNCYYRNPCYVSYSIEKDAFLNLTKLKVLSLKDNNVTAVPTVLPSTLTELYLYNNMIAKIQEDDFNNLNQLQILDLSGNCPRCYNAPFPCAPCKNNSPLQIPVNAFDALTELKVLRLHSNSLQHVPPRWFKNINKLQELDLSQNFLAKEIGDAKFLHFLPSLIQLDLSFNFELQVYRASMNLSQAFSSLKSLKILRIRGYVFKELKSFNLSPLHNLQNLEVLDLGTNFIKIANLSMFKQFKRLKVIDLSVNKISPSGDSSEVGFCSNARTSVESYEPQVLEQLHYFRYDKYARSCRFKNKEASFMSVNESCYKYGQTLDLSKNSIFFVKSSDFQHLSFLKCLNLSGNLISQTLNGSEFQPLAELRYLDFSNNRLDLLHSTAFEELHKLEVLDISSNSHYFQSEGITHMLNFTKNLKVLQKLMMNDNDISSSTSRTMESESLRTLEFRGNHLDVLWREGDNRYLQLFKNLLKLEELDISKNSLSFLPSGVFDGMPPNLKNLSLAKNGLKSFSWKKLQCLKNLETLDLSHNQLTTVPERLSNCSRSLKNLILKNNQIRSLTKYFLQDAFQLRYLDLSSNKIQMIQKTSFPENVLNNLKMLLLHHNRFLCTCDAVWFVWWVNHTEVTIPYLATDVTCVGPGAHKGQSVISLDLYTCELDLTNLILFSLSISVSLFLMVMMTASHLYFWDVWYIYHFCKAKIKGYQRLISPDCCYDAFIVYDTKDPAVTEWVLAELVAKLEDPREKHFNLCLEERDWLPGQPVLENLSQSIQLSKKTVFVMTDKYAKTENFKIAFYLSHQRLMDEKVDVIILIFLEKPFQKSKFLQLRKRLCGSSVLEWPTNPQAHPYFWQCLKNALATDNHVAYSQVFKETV
Outline: as §1

Compound `Cc1c(-c2[nH]c3ccc(C4CCN(CC(=O)N(C)C)CC4)cc3c2C(C)C)cn2cnnc2c1C` [Example 39, 2-(4-(2-(7,8-dimethyl-[1,2,4]triazolo [4,3-a]pyridin-6-yl)-3-isopropyl-1H-indol-5-yl)piperidin-1-yl)-N,N-dimethylacetamide] has a pIC50 (human TLR9) of 5.37, a pIC50 (human TLR8) of 8.02 and a pIC50 (human TLR7) of 8.72.
Compound `Cc1cc(-c2[nH]c3ccc(C4CCN(Cc5ncn(C)n5)CC4)cc3c2C(C)C)c(C)n2cnnc12` [Example 40, 6-(3-isopropyl-5-(1-((1-methyl-1H-1,2,4-triazol-3-yl)methyl)piperidin-4-yl)-1H-indol-2-yl)-5,8-dimethyl-[1,2,4]triazolo[4,3-a]pyridine] has a pIC50 (human TLR9) of 5.10, a pIC50 (human TLR8) of 8.35 and a pIC50 (human TLR7) of 6.98.
In the case of `Cc1cc(-c2[nH]c3ccc(C4CCN(CCCC(F)(F)F)CC4)cc3c2C(C)C)c(C)n2cnnc12` [Example 41, 6-(3-isopropyl-5-(1-(4,4,4-trifluorobutyl)piperidin-4-yl)-1H-indol-2-yl)-5,8-dimethyl-[1,2,4]triazolo[4,3-a]pyridine], the pIC50 (human TLR9) was 5.55, the pIC50 (human TLR8) was 8.48 and the pIC50 (human TLR7) was 7.59.
`Cc1cc(-c2[nH]c3ccc(C4CCN(CC(=O)N(C)C)CC4)cc3c2C(C)C)c(C)n2cnnc12` [Example 42, 2-(4-(2-(5,8-dimethyl-[1,2,4]triazolo[4,3-a]pyridin-6-yl)-3-isopropyl-1H-indol-5-yl)piperidin-1-yl)-N,N-dimethylacetamide] gave a pIC50 (human TLR9) of 5.43, a pIC50 (human TLR8) of 8.22 and a pIC50 (human TLR7) of 7.49.
In the case of `Cc1c(-c2[nH]c3ccc(C4CCN(CCS(C)(=O)=O)CC4)cc3c2C(C)C)cn2cnnc2c1C` [Example 43, 6-(3-isopropyl-5-(1-(2-(methylsulfonyl)ethyl)piperidin-4-yl)-1H-indol-2-yl)-7,8-dimethyl-[1,2,4]triazolo[4,3-a]pyridine], the pIC50 (human TLR9) was 5.18, the pIC50 (human TLR8) was 8.49 and the pIC50 (human TLR7) was 8.74.
`Cc1c(-c2[nH]c3ccc(C4CCN(CCCC(F)(F)F)CC4)cc3c2C(C)C)cn2cnnc2c1C` [Example 44, 6-(3-isopropyl-5-(1-(4,4,4-trifluorobutyl)piperidin-4-yl)-1H-indol-2-yl)-7,8-dimethyl-[1,2,4]triazolo[4,3-a]pyridine] was tested, and the pIC50 (human TLR9) was 5.76, the pIC50 (human TLR8) was 8.19 and the pIC50 (human TLR7) was 8.77.
For `Cc1c(-c2[nH]c3ccc(C4CCN(Cc5ncn(C)n5)CC4)cc3c2C(C)C)cn2cnnc2c1C` [Example 45, 6-(3-isopropyl-5-(1-((1-methyl-1H-1,2,4-triazol-3-yl)methyl)piperidin-4-yl)-1H-indol-2-yl)-7,8-dimethyl-[1,2,4]triazolo[4,3-a]pyridine], the pIC50 (human TLR9) was 5.64, the pIC50 (human TLR8) was 8.09 and the pIC50 (human TLR7) was 8.49.
`Cc1c(-c2[nH]c3ccc(C4CCN(CCS(C)(=O)=O)CC4)cc3c2C(C)C)cn2cnnc2c1Cl` [Example 46, 8-chloro-6-(3-isopropyl-5-(1-(2-(methylsulfonyl)ethyl)piperidin-4-yl)-1H-indol-2-yl)-7-methyl-[1,2,4]triazolo[4,3-a]pyridine] was tested, and the pIC50 (human TLR9) was 5.05, the pIC50 (human TLR8) was 8.07 and the pIC50 (human TLR7) was 8.68.
In the case of `Cc1c(-c2[nH]c3ccc(C4CCN(Cc5ncn(C)n5)CC4)cc3c2C(C)C)cn2cnnc2c1Cl` [Example 47, 8-chloro-6-(3-isopropyl-5-(1-((1-methyl-1H-1,2,4-triazol-3-yl)methyl)piperidin-4-yl)-1H-indol-2-yl)-7-methyl-[1,2,4]triazolo[4,3-a] pyridine], the pIC50 (human TLR9) was 5.68, the pIC50 (human TLR8) was 7.66 and the pIC50 (human TLR7) was 8.42.
Work on `Cc1c(-c2[nH]c3ccc(C4CCN(CCCC(F)(F)F)CC4)cc3c2C(C)C)cn2cnnc2c1Cl` [Example 48, 8-chloro-6-(3-isopropyl-5-(1-(4,4,4-trifluorobutyl)piperidin-4-yl)-1H-indol-2-yl)-7-methyl-[1,2,4]triazolo[4,3-a]pyridine] yielded a pIC50 (human TLR9) of 5.59, a pIC50 (human TLR8) of 7.87 and a pIC50 (human TLR7) of 8.72.
`Cc1c(-c2[nH]c3ccc(C4CCN(CC(=O)N(C)C)CC4)cc3c2C(C)C)cn2cnnc2c1Cl` [Example 49, 2-(4-(2-(8-chloro-7-methyl-[1,2,4]triazolo[4,3-a]pyridin-6-yl)-3-isopropyl-1H-indol-5-yl)piperidin-1-yl)-N,N-dimethylacetamide] was tested, and the pIC50 (human TLR9) was 6.02, the pIC50 (human TLR8) was 7.51 and the pIC50 (human TLR7) was 8.82.
Work on `Cc1c(-c2[nH]c3ccc(C4CCN(CC#N)CC4)cc3c2C(C)C)cn2cnnc2c1Cl` [Example 50, 2-(4-(2-(8-chloro-7-methyl-[1,2,4]triazolo[4,3-a]pyridin-6-yl)-3-isopropyl-1H-indol-5-yl)piperidin-1-yl)acetonitrile] yielded a pIC50 (human TLR9) of 5.96, a pIC50 (human TLR8) of 7.24 and a pIC50 (human TLR7) of 8.82.
For `Cc1c(-c2[nH]c3ccc(C4CCN(CC#N)CC4)cc3c2C(C)C)cn2cnnc2c1C` [Example 51, 2-(4-(2-(7,8-dimethyl-[1,2,4]triazolo[4,3-a]pyridin-6-yl)-3-isopropyl-1H-indol-5-yl)piperidin-1-yl)acetonitrile], the pIC50 (human TLR9) was 6.00, the pIC50 (human TLR8) was 7.50 and the pIC50 (human TLR7) was 8.55.
